Data published in patent US20250019367A1, “Methods for Separation of Enantiomers” (Mirati Therapeutics, Inc., priority 2021, published 2025).

Test: Solid form stability versus water activity
Assay type: physicochemical
Details: IPA-water mixtures, water activity αw
From the text: In certain such embodiments, the reacting step (c) occurs in an iso-propyl alcohol (IPA, i-PrOH) solution, or isopropyl alcohol and water solution. […] mixtures of IPA-water (e.g. 90/10 v/v) are preferred to maximize recovery and control API form. […] In certain embodiments, the step (c) solution is optionally seeded with M-enantiomer free base Compound 2.

Cn1ncc(-c2ccc3c(=O)[nH]nc(CN)c3c2)c1-c1c(F)c(Cl)cc(OC2CC2)c1C#N [Free Base Type A, (2M)-2-(4-(4-(aminomethyl)-1-oxo-1,2-dihydrophthalazin-6-yl)-1-methyl-1H-pyrazol-5-yl)-4-chloro-6-cyclopropoxy-3-fluorobenzonitrile]
water activity at which the form is the most stable: ≥ 0.13
